“Also recorded” adds a separate entry of the source.
How the values were obtained:
[1] = biological target: EcCheY-ARR (wild-type ARR of CleD fused to E. coli CheY) (Caulobacter vibrioides, UniProt Q9A3V2); experiment: MST; type: binding; conditions: read-out: apparent Kd
Description: (§1) MST experiments were carried out in a Monolith NT.115 device using standard treated capillaries (NanoTemper Technologies). Fluorescence changes resulting from thermophoresis were recorded using blue channel optics of the instrument (λex = 470 ± 15 nm, λem = 520 ± 10 nm) for the 30 s period of infrared laser heating at 40% of maximum laser power followed by a 5 s of cooling period. Measurements were performed in a buffer containing 50 mM Tris-HCl, pH 8.0, 100 mM NaCl, 5 mM MgCl2, 1 mM DTT and 0.1% Tween 20. 2'-O-(6-[Fluoresceinyl]aminohexylcarbamoyl)-cyclic diguanosine monophosphate (2’fluo-AHC-c-di-GMP, Biolog, Bremen, Germany) was added to probe the binding affinity of CleD domains. A 16-point 1:1 serial dilution series of proteins was titrated against a fixed concentration (60 nM) of 2’fluo-AHC-c-di-GMP. Data were evaluated in the program ProFit (Quansoft, Zurich, Switzerland) and fitted using the Hill equation.

His-SUMO = biological target: T1, His-SUMO (Saccharomyces cerevisiae, UniProt Q12306); experiment: MST; type: binding
T1 construct: made in house; host or cells: E. coli BL21 (DE3)
T1 sequence (Q12306 whole entry): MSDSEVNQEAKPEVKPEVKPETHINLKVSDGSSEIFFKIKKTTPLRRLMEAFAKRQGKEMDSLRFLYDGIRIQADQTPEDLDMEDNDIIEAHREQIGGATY
Description: as §1

His-SUMO R156A ARRCleD = experiment: MST; type: binding, Caulobacter crescentus
Description: as §1

His-SUMO R169A ARRCleD = His-SUMO R169A ARRCleD (Caulobacter vibrioides, UniProt Q9A3V2, R169A); experiment: MST; type: binding, Caulobacter crescentus
His-SUMO R169A ARRCleD, sequence (Q9A3V2 entry or part of it R169A): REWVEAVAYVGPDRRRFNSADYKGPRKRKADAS
Description: as §1

His-CleD (aa 19–262) = His-CleD (aa 19–262) (Caulobacter vibrioides, UniProt Q9A3V2); experiment: MST; type: binding, Caulobacter crescentus; conditions: 60 nM ligand; variant lacking part of the CTR
His-CleD (aa 19–262), sequence (Q9A3V2 entry or part of it): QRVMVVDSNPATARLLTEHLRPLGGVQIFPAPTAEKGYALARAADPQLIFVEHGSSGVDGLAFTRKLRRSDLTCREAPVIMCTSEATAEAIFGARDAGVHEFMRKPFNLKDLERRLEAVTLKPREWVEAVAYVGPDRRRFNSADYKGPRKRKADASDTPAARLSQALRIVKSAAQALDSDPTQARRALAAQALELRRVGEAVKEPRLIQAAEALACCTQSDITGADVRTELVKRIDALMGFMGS
Description: as §1

[2] = biological target: His-CleD-rec-ARR (aa 19–174) (Caulobacter vibrioides, UniProt Q9A3V2); experiment: MST; type: binding, Caulobacter crescentus
His-CleD-rec-ARR (aa 19–174), sequence (Q9A3V2 entry or part of it): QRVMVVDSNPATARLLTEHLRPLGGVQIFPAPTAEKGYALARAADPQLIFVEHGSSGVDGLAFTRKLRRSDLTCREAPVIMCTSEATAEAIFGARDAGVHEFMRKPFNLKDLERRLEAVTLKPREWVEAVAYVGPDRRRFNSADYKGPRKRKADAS
Description: as §1

His-CleD-rec (aa 19–141) = His-CleD-rec (aa 19–141) (Caulobacter vibrioides, UniProt Q9A3V2); experiment: MST; type: binding, Caulobacter crescentus
His-CleD-rec (aa 19–141), sequence (Q9A3V2 entry or part of it): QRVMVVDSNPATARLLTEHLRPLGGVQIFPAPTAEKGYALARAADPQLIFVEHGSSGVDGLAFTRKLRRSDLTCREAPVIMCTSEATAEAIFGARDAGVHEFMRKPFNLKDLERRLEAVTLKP
Description: as §1

[3] = test system: isolated ARR of CleA fused to His-SUMO; experiment: MST; type: binding, Caulobacter crescentus
Description: as §1

His-CleD (aa 19–269) = His-CleD (aa 19–269) (Caulobacter vibrioides, UniProt Q9A3V2); experiment: Microscale thermophoresis (MST); type: binding, Caulobacter crescentus
His-CleD (aa 19–269), sequence (Q9A3V2 entry or part of it): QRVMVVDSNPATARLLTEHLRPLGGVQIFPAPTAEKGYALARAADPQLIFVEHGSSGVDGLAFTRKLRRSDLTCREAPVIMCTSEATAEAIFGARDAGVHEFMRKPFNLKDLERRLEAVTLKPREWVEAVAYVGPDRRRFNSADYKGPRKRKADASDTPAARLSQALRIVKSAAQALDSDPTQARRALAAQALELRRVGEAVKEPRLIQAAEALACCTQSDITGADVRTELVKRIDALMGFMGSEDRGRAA
Description: as §1

His-CheY = biological target: T2, His-CheY (Escherichia coli, UniProt P0AE67); experiment: MST; type: binding, E. coli
T2 construct: made in house; host or cells: E. coli BL21 (DE3)
T2 sequence (P0AE67 whole entry): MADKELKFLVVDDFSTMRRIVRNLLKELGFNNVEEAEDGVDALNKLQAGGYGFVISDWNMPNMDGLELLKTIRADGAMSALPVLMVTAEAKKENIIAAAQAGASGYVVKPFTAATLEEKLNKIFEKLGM
Description: as §1

[4] = biological target: EcCheY-ARR with R156A mutant ARR (Caulobacter vibrioides, UniProt Q9A3V2, R156A); experiment: MST; type: binding, E. coli; conditions: read-out: apparent Kd
EcCheY-ARR with R156A mutant ARR, sequence (Q9A3V2 entry or part of it R156A): as the sequence (Q9A3V2 entry or part of it R169A) above
EcCheY-ARR with R156A mutant ARR, sequence (P0AE67 2-129, further chain): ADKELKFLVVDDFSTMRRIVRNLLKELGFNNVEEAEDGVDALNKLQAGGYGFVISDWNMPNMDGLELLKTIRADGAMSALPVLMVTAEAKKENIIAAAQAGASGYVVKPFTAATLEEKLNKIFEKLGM
Description: as §1

StrepII-CleD [5] = biological target: T3, StrepII-CleD (Caulobacter vibrioides, UniProt Q9A3V2); experiment: UV cross-linking competition with non-labeled nucleotides; type: binding, Caulobacter crescentus; conditions: 1 µM StrepII-CleD, 0.25 µM 33P-labelled c-di-GMP
T3 sequence (Q9A3V2 entry or part of it): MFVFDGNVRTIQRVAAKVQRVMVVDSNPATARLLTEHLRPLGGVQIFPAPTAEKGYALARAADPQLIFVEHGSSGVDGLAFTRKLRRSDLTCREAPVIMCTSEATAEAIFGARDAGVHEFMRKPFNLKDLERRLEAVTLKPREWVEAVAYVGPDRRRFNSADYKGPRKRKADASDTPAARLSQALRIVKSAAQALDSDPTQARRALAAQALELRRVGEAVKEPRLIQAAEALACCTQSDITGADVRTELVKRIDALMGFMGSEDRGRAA
Description: Synthesis of radiolabeled c-di-GMP using YdeH and UV light-induced cross-linking experiments in conical 96-well plates (Greiner Bio-One) were performed as described recently ([Steiner et al., 2013]; [Christen et al., 2005]). […] As a control BSA was included. For competition experiments unlabeled nucleotides were incubated with the protein for 15 min prior the addition of c-[^33P] -di-GMP. The 96-well plates were then UV-irradiated at 254 nm for 20 min using a Bio-Link crosslinker (Vilber Lourmat, France). After addition of 5 μl loading dye and boiling for 5 min the samples were subjected to SDS-PAGE. Proteins were analyzed by Coomassie staining and autoradiography. Band intensities were quantified using the ImageJ64 software and the data were fitted using GraphPad Prism version 5.04 for Windows (GraphPad Software, San Diego California USA). The Kd was calculated by non-linear regression using the ‘One site – Total binding’ equation.

CleD = experiment: 1H-15N HSQC NMR of 15N-CleD with FliM peptides; type: binding, Caulobacter crescentus
Description: The standard two-dimensional spectra ^1H-^15N HSQC of His-CleD with or without peptides were performed on a ^15N isotope labeled His-CleD. The His-CleD (400 µM) sample was in 20 mM sodium phosphate buffer at pH 7.0, 200 mM NaCl, 1 mM MgCl2, 5 mM 2-Mercaptoethanol, 0.02% NaN3 (w/v), and 5% (v/v) D2O with a sample volume of 270 μL. c-di-GMP was titrated to the protein sample in 2.5-fold excess. The FliM peptide from residue Ala47 to Gly62 contains an additional Trp at the N-terminus to measure concentration and to increase solubility (WASERILNQDEIDSLLG). As the corresponding ID57_WA peptide contains a Trp we used the following sequence ASERILNQDEWASLLG. Both peptides were purchased from JPT Peptide Technologies, and dissolved in 200 mM NaCl, 20 mM sodium phosphate buffer at pH 7.0, 1 mM MgCl2, 5 mM β-Mercaptoethanol, 0.02%NaN3 (w/v), and 5% (v/v) D2O. With homonuclear 2D-TOCSY and 2D-NOESY experiments the peptide proton resonances were assigned. It was confirmed, that both peptides were stable in this buffer and unfolded (data not shown). The spectrum of the purified CleD protein was recorded in the same buffer as the FliM peptides.

CleD-GFP [6] = biological target: T4, CleD-GFP (Caulobacter vibrioides, UniProt Q9A3V2); experiment: 1H-NMR Jump-return imino proton spectra; type: binding, Caulobacter crescentus; conditions: difference spectrum with and without c-di-GMP, four imino H1 resonances
Description: NMR spectra were recorded at 298 K on Bruker DRX 600, and DRX 900 NMR spectrometers equipped with TXI and TCI probe heads, respectively. The one dimensional NMR spectra were recorded with a Jump-return echo sequence ([Sklenár et al., 1987]) optimized for resonances at around 12 ppm. For the complex His-CleD-GFP·c-di-GMP and apo His-CleD-GFP 16384 scans were recorded. The NMR samples were prepared as follows. The sample of apo His-CleD-GFP (30 μM) was prepared in 100 mM NaCl, 20 mM sodium phosphate buffer at pH 6.5, 0.01% NaN3 (w/v), and 5% (v/v) D2O as sample volume of 250 μL. Complex CleD-GFP·c-di-GMP: the ligand was titrated to the apo His-CleD-GFP sample from a 20 mM stock solution in twofold excess.

StrepII-CleD [7] = biological target: T3, StrepII-CleD; experiment: UV cross-linking with radiolabeled c-di-GMP; type: binding, Caulobacter crescentus
Description: Synthesis of radiolabeled c-di-GMP using YdeH and UV light-induced cross-linking experiments in conical 96-well plates (Greiner Bio-One) were performed as described recently ([Steiner et al., 2013]; [Christen et al., 2005]). Briefly, 2 μM protein was incubated for 10 min at room temperature with c-[^33P]-di-GMP in a total volume of 20 μl using PBS as buffer. As a control BSA was included. For competition experiments unlabeled nucleotides were incubated with the protein for 15 min prior the addition of c-[^33P] -di-GMP. The 96-well plates were then UV-irradiated at 254 nm for 20 min using a Bio-Link crosslinker (Vilber Lourmat, France). After addition of 5 μl loading dye and boiling for 5 min the samples were subjected to SDS-PAGE. Proteins were analyzed by Coomassie staining and autoradiography. Band intensities were quantified using the ImageJ64 software and the data were fitted using GraphPad Prism version 5.04 for Windows (GraphPad Software, San Diego California USA). The Kd was calculated by non-linear regression using the ‘One site – Total binding’ equation.

His-CleD_R113A-GFP = His-CleD_R113A-GFP (Caulobacter vibrioides, UniProt Q9A3V2, R113A); experiment: ITC with R113A mutant; type: binding, Caulobacter crescentus
Description: (§2) ITC experiments were performed on a VP-ITC MicroCalorimeter (MicroCal, Northampton, MA, USA). Protein samples, c-di-GMP and buffer (50 mM Tris-HCl, pH 8.0, 100 mM NaCl, 5 mM MgCl2, 1 mM DTT) were degassed for 15 min prior to filling into sample cell and syringe. The sample cell contained 7.4 µM of His-CleD-GFP and the syringe contained 69.7 µM of cdG. The concentrations were determined in a spectrophotometer using a cuvette with 1 cm path length. All experiments were carried out at 10 °C with 30 injections (10 µl each) with a 250 s interval. Stir rate was 300 rpm. The data were evaluated using ITC Data Analysis in ORIGIN (MicroCal) provided by the manufacturer. The area under each peak was integrated and fitted using the built-in one-site model by non-linear least squares regression analysis.

[8] = test system: R156A mutant variant of CleD-GFP; experiment: ITC with R156A mutant; type: binding, Caulobacter crescentus
Description: as §2

CleD-GFP [9] = biological target: T4, CleD-GFP; experiment: Isothermal titration calorimetry (ITC); type: binding, Caulobacter crescentus; conditions: ITC at 10°C
Description: as §2

EcCheY-ARR (wild-type ARR of CleD fused to E. coli CheY), sequence (P0AE67 2-129): as the sequence (P0AE67 2-129, further chain) above
EcCheY-ARR (wild-type ARR of CleD fused to E. coli CheY), sequence (Q9A3V2 entry or part of it): as the sequence (Q9A3V2 entry or part of it R169A) above

2'-O-(6-[Fluoresceinyl]aminohexylcarbamoyl)-cyclic diguanosine monophosphate [flr-cdG]
Kd [1]: 14800 nM | binding (in words) (His-SUMO): not SUMO itself were able to bind flr-cdG | binding (in words) (His-SUMO R156A ARRCleD): strongly reduced binding; also recorded: completely abolished | reduction of binding relative to wild-type ARR (His-SUMO R169A ARRCleD): about 5 fold | Kd (His-CleD (aa 19–262)): 1300 nM | dissociation constant relative to full-length protein [2]: 5 fold | Kd ([2]; 60 nM ligand): 6200 nM | dissociation constant relative to full-length protein (His-CleD-rec (aa 19–141)): 40 fold | Kd (His-CleD-rec (aa 19–141); 60 nM ligand): 41700 nM | binding (in words) [3]: failed to bind | Kd (His-CleD (aa 19–269); 60 nM ligand): 1200 nM | Kd relative to affinities determined for c-di-GMP itself (His-CleD (aa 19–269); full-length CleD and variant lacking part of the CTR): roughly 10 fold | binding (in words) (His-CheY): failed to bind | Kd [4]: 471000 nM

Nc1nc2c(ncn2[C@@H]2O[C@H](COP(=O)(O)OP(=O)(O)OP(=O)(O)O)[C@@H](O)[C@H]2O)c(=O)[nH]1 [GTP]
concentration required for a similar reduction of 33P-labelled c-di-GMP binding, relative to non-labeled c-di-GMP (StrepII-CleD [5]): 1000 fold

WASERILNQDEIDSLLG [FliM wild-type peptide, FliM peptide from residue Ala47 to Gly62 with an additional Trp at the N-terminus]
number of CleD resonances with shift changes (CleD; in the presence of c-di-GMP, peptide in two-fold excess): approximately 10 resonances | HSQC spectrum change (in words) (CleD; without c-di-GMP): indistinguishable from the spectrum recorded for CleD alone

Nc1nc2c(ncn2[C@@H]2O[C@H](COP(=O)(O)O[C@H]3[C@@H](O)[C@H](n4cnc5c(=O)[nH]c(N)nc54)O[C@@H]3COP(=O)(O)O)[C@@H](O)[C@H]2O)c(=O)[nH]1 [pGpG]
concentration required for a similar reduction of 33P-labelled c-di-GMP binding, relative to non-labeled c-di-GMP (StrepII-CleD [5]): 1000 fold

Nc1nc2c(ncn2[C@@H]2O[C@@H]3COP(=O)(O)O[C@H]4[C@@H](O)[C@H](n5cnc6c(=O)[nH]c(N)nc65)O[C@@H]4COP(=O)(O)O[C@H]3[C@H]2O)c(=O)[nH]1 [c-di-GMP, Cyclic di-GMP]
binding stoichiometry (CleD-GFP [6]): two molecules of c-di-GMP are bound to one CleD protomer; also recorded: one c-di-GMP dimer to one protein monomer | competition with labeled probe for binding (in words) (StrepII-CleD [5]): effectively compete; also recorded: equimolar amounts of non-labeled c-di-GMP reduced binding | Kd (StrepII-CleD [7]): 212 nM | binding (in words) (StrepII-CleD [7]; purified Strep-tagged CleD, radiolabeled c-di-GMP): high affinity binding in the nanomolar range | Kd (His-CleD_R113A-GFP): 221 nM | increase of the Kd as compared to wild-type CleD (His-CleD_R113A-GFP; ITC): 3 fold | binding (in words) [8]: completely abolished | Kd (CleD-GFP [9]): 86 nM

ASERILNQDEWASLLG [FliM_ID57WA mutant peptide, FliM residues 47–62 peptide with ID57WA substitution]
HSQC spectrum change (in words) (CleD; with c-di-GMP): indistinguishable from the spectrum recorded for CleD alone
